Values joined by “and” are separate entries in the source; they are usually repeats but may differ in a detail not shown here. Equal values may be shown once.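 Compound exposure: 48 hours, 5 concentrations, 96-well plates. The concentration for 50% growth inhibition is given as GI50. TGI denotes the concentration required for complete inhibition of growth.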
What was measured:
Test in all cases: NCI tumour cell line growth inhibition, 48 h
UACC-62 melanoma = tested on: UACC-62 melanoma
U251 CNS = tested on: U251 CNS
SF-295 CNS = tested on: SF-295 CNS
SF-539 CNS = tested on: SF-539 CNS
SK-MEL-28 melanoma = tested on: SK-MEL-28 melanoma
HCT-15 colon = tested on: HCT-15 colon
TK-10 renal = tested on: TK-10 renal
MOLT-4 leukemia = tested on: MOLT-4 leukemia
MCF7 breast = tested on: MCF7 breast
SK-MEL-2 melanoma = tested on: SK-MEL-2 melanoma

SMILES | TGI (UACC-62 melanoma) [µM] | TGI (U251 CNS) | TGI (SF-295 CNS) | TGI (SF-539 CNS) | TGI (SK-MEL-28 melanoma) | TGI (HCT-15 colon) | TGI (TK-10 renal) | TGI (MOLT-4 leukemia) | TGI (MCF7 breast) | TGI (SK-MEL-2 melanoma) | GI50 (UACC-62 melanoma) [µM] | GI50 (U251 CNS) [µM] | GI50 (SF-295 CNS) | GI50 (SF-539 CNS) | GI50 (SK-MEL-28 melanoma) [µM] | GI50 (HCT-15 colon) [µM] | GI50 (TK-10 renal) | GI50 (MOLT-4 leukemia) [µM] | GI50 (MCF7 breast) [nM] | GI50 (SK-MEL-2 melanoma)
Cc1noc(NC(=O)Nc2ccccc2F)c1C#N | > 45.4 | > 44.6 µM | > 100 µM | > 100 µM | > 100 µM | > 100 µM | > 45.1 µM | > 100 µM | > 35.6 µM | > 54.9 µM | – | – | – | – | – | – | – | – | – | –
COCCN(Cc1ccc(F)cc1)c1ccc(CO)c(Cl)c1 | 4.28 | > 54.7 µM | > 100 µM | > 100 µM | > 100 µM | > 100 µM | 1.66 µM | > 78.9 µM | > 100 µM | 59.5 µM | 0.653 | 6.33 | 3.83 µM | > 71.3 µM | 31.3 | 30.6 | 0.271 µM | 34 | 2790 | 20.6 µM
Nc1nccc(-c2c(-c3ccc(F)cc3)nn3cc(C(F)(F)F)ccc23)n1 | > 25 | > 25 µM | > 25 µM | > 25 µM | > 25 µM | > 25 µM | > 25 µM | > 25 µM | > 25 µM | > 25 µM | > 25 | > 25 | > 25 µM | > 25 µM | > 25 | > 25 | > 25 µM | > 25 | > 25000 | > 25 µM
COC12C(COC(=O)NCCO)C3=C(C(=O)C(C)=C(N)C3=O)N1CC1NC12 (stereo not given) | 49.9 | – | > 264 µM | 98.7 µM | > 264 µM | > 264 µM | > 264 µM | > 264 µM | 118 µM | 79.9 µM and 75.5 µM | – | 45.4 | 24.3 µM | 13.9 µM | – | – | 66.8 µM | – | – | –
S=C1SCN(Cc2ccccc2)CN1Cc1ccco1 | 18.7 | 68.3 µM | > 100 µM | 6.68 µM | 20.1 µM | 14.4 µM | 18.8 µM | 76 µM | 16.1 µM | 11.9 µM | 4.75 | 21.3 | > 100 µM | 2.24 µM | 5.75 | 2.95 | 5.79 µM | 5.91 | 1780 | 3.04 µM
Cc1cc(Br)c(NC(=O)c2c(-c3c(Cl)cccc3Cl)noc2C)c(Br)c1 | > 100 | > 100 µM | > 100 µM | > 100 µM | > 100 µM | > 100 µM | > 100 µM | > 100 µM | > 100 µM | > 100 µM | 14.3 | > 100 | 2.15 µM | > 100 µM | > 100 | > 100 | > 100 µM | > 100 | > 100000 | > 100 µM
O=C(O)CN(CCN(CC(=O)O)CC(=O)O)CC(=O)O.[Mn+2] | > 100 | > 100 µM | > 100 µM | > 100 µM | > 100 µM | > 100 µM | > 100 µM | > 100 µM | > 100 µM | > 100 µM | > 100 | > 100 | > 100 µM | > 100 µM | > 100 | > 100 | > 100 µM | > 100 | > 100000 | > 100 µM
CC(=O)O[C@H]1CC2C(C3CC[C@H](C(C)CCC(=O)O)[C@]31C)[C@H](OC(C)=O)C[C@@H]1CC3(CC[C@]21C)OOC1(CCC(C)CC1)OO3 (stereo not given in full) | – | 17.2 µM and 3.71 µM | 19.8 µM and 5.53 µM | 20.6 µM and 3.86 µM | 11.8 µM and 13.2 µM | 13.9 µM and 7.4 µM | 33 µM and 9.19 µM | 10.6 µM and 3.79 µM | 30.4 µM and 38.1 µM | 27.2 µM and 5 µM | – | – | 7.46 µM and 2.25 µM | 8.15 µM and 1.94 µM | – | – | 18.6 µM and 3.08 µM | – | – | 10.7 µM and 2.02 µM
C#Cc1ccc(-n2c(/C=C/c3ccc(O)cc3)nc3ncccc3c2=O)cc1 | > 100 | > 100 µM | – | 6.1 µM | > 100 µM | > 100 µM | 68.7 µM | > 100 µM | > 100 µM | 40.7 µM | 4.01 | 4.02 | – | 2.12 µM | 5.97 | 4.65 | 8.78 µM | 7.35 | 3040 | 3.95 µM
COc1cc(-c2nccc3[nH]c(-c4ccc5cc[nH]c5c4)nc23)cc(OC)c1OC | 2.57 | 1.85 µM | < 0.01 µM | < 0.01 µM | – | 1.31 µM | 7.88 µM | 7.26 µM | 2.87 µM | 3.06 µM | < 0.01 | < 0.01 | < 0.01 µM | < 0.01 µM | – | < 0.01 | 1.13 µM | < 0.01 | 56.8 | < 0.01 µM
[O]=[V]([OH])([OH])[OH] | > 100 | > 100 µM | > 100 µM | > 100 µM | > 100 µM | > 100 µM | > 100 µM | > 100 µM | > 100 µM | > 100 µM | > 100 | > 100 | > 100 µM | > 100 µM | > 100 | > 100 | > 100 µM | > 100 | > 100000 | > 100 µM
COc1cc(/C=C/c2cc(/C=C/c3ccc(O)c(OC)c3)n(C(=O)c3ccccc3Br)n2)ccc1O | 8.77 | > 100 µM | 35.1 µM | – | 8.71 µM | > 100 µM | 33 µM | > 100 µM | 13 µM | 5.92 µM | 2.64 | 2.62 | 3.12 µM | – | 2.57 | 2.8 | 3.85 µM | 1.23 | 3000 | 2.37 µM
CC(=O)NC1C(O[C@H]2C[C@H]3[C@@H]4CC=C5C[C@@H](O)CC[C@]5(C)[C@H]4CC[C@]3(C)[C@H]2[C@H](C)C(=O)CCC(C)C)OCC(O)C1O (stereo not given in full) | 2.21 | 11.5 µM | 1.23 µM | 2.33 µM | 2.78 µM | 10.5 µM | > 42.5 µM | 3.11 µM | 10.4 µM | 4.11 µM | 0.913 | 2.34 | 0.5 µM | 0.568 µM | 0.928 | 4.38 | 13.9 µM | 1.22 | 2440 | 1.35 µM
